US6051605A, “Method of treating psychosis and schizophrenia” (priority 1999, dated 2000)
Counter-ions that a name gives are not always drawn.

Molecular target: T1, human recombinant dopamine D4.2 receptor (Homo sapiens, UniProt P21917, DEL265-296)
T1 construct: expressed in transfected cells; membranes
T1 sequence (P21917 with tags, fused parts or gaps DEL265-296): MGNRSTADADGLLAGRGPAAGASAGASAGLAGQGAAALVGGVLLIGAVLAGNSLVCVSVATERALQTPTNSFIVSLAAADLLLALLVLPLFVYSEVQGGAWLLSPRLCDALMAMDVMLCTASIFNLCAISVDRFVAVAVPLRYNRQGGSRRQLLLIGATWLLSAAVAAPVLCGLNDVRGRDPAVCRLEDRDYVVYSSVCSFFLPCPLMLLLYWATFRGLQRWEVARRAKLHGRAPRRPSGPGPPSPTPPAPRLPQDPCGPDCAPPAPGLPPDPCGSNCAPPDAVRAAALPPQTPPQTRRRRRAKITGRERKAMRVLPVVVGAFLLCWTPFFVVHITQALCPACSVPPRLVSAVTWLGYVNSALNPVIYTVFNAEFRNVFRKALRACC
Experiment: Receptor binding assay, D4.2 dopamine receptor ([3H]spiperone competition)

Row | SMILES | Ki [nM]
1 | O=[N+]([O-])c1ccc(OCCNCCCOc2ccccc2)cc1 [Example 2a, [2-(4-Nitro-phenoxy)-ethyl]-(3-phenoxy-propyl)-amine hydrochloride] | 4.4
2 | Oc1ccc(OCCNCCCOc2ccccc2)cc1 [Example 11, 4-[2-(3-Phenoxy-propylamino)-ethoxy]-phenol hydrobromide] | 3.1
3 | Fc1ccc(OCCCNCCOc2ccccc2)cc1 [Example 4, [3-(4-Fluoro-phenoxy)-propyl]-(2-phenoxy-ethyl)-amine hydrochloride] | 1.2
4 | CC(C)(C)c1ccc(OCCNCCCOc2ccccc2)cc1 [Example 2b, [2-(4-tert-Butyl-phenoxy)-ethyl]-(3-phenoxy-propyl)-amine hydrochloride] | 20.9
5 | Cc1ccc(OCCCNCCOc2ccccc2)cc1 [Example 3f, (2-Phenoxy-ethyl)-(3-p-tolyloxy-propyl)-amine hydrochloride] | 2.7
6 | Clc1ccc(OCCNCCCOc2ccc(Br)cc2)cc1 [Example 3g, [3-(4-Bromo-phenoxy)-propyl]-[2-(4-chloro-phenoxy)-ethyl]-amine hydrochloride] | 37.8
7 | COc1ccc(OCCCNCCCOc2ccc(OC)cc2)cc1 [Example 1q, Bis[3-(4-methoxy-phenoxy)-propyl]-amine hydrochloride] | 1330
8 | Cc1ccc(OCCNCCCOc2ccccc2)cc1 [Example 2, (3-Phenoxy-propyl)-(2-p-tolyloxy-ethyl)-amine hydrochloride] | 0.2
9 | O=C(O)c1ccc(OCCNCCCOc2ccccc2)cc1 [Example 15, 4-[2-(3-Phenoxy-propylamino)-ethoxy]-benzoic acid hydrochloride] | > 1000
10 | Cc1ccc(OCCCNCCOc2ccc(C)cc2)cc1 [Example 3, (2-p-Tolyloxy-ethyl)-(3-p-tolyloxy-propyl)-amine hydrochloride] | 11.4
11 | Cc1ccc(OCCCNCCOc2ccc(Cl)cc2)cc1 [Example 3e, [2-(4-Chloro-phenoxy)-ethyl]-(3-p-tolyloxy-propyl)-amine hydrochloride] | 5.6
12 | CCOc1ccc(OCCNCCCOc2ccccc2)cc1 [Example 2c, [2-(4-Ethoxy-phenoxy)-ethyl]-(3-phenoxy-propyl)-amine hydrochloride] | 11.9
13 | c1ccc(OCCCNCCOc2ccc(-c3ccccc3)cc2)cc1 [Example 2e, [2-(Biphenyl-4-yloxy)-ethyl]-(3-phenoxy-propyl)-amine hydrochloride] | 383
14 | Cc1ccc(CCCNCCCOc2ccccc2)cc1 [Example 5, (3-Phenoxy-propyl)-(3-p-tolyl-propyl)-amine hydrochloride] | 4.7
15 | Cc1ccc(OCCNCCCOc2ccc(Br)cc2)cc1 [Example 3b, [3-(4-Bromo-phenoxy)-propyl]-(2-p-tolyloxy-ethyl)-amine hydrochloride] | 26.9

Continued, values first:

Row | Ki [nM] | SMILES
16 | 74.9 | Cc1ccc(OCCNCCOc2ccc(C)cc2)cc1 [Example 6e, Bis-(2-p-tolyloxy-ethyl)-amine hydrochloride]
17 | 5.4 | COc1ccc(OCCNCCCOc2ccccc2)cc1 [Example 9d, [2-(4-Methoxy-phenoxy)-ethyl]-(3-phenoxy-propyl)-amine hydrochloride]
18 | 103 | Cc1ccc(OCCNCCOc2ccccc2)cc1 [Example 6d, (2-Phenoxy-ethyl)-(2-p-tolyloxy-ethyl)-amine hydrochloride]
19 | 30 | Cc1ccc(SCCNCCCOc2ccccc2)cc1 [Example 4d, (3-Phenoxy-propyl)-(2-p-tolylsulfanyl-ethyl)-amine hydrochloride]
20 | 0.96 | Cc1ccc(OCCNCCCOc2ccc(F)cc2)cc1 [Example 4c, [3-(4-Fluoro-phenoxy)-propyl]-(2-p-tolyloxy-ethyl)-amine hydrochloride]
21 | 10.7 | N#Cc1ccc(OCCNCCCOc2ccccc2)cc1 [Example 6b, 4-[2-(3-Phenoxy-propylamino)-ethoxy]-benzonitrile]
22 | 10.9 | COC(=O)c1ccc(OCCNCCCOc2ccccc2)cc1 [Example 6a, 4-[2-(3-Phenoxy-propylamino)-ethoxy]-benzoic acid methyl ester]
23 | 2.1 | OC(CNCCOc1ccc(Cl)cc1)COc1ccccc1 (stereo not shown) [Example 16h, 1-[2-(4-Chloro-phenoxy)-ethylamino]-3-phenoxy-propan-2-ol]
24 | 0.84 | Fc1ccc(OCCCNCCOc2ccc(Cl)cc2)cc1 [Example 4h, [2-(4-Chloro-phenoxy)-ethyl]-[3-(4-fluoro-phenoxy)-propyl]-amine hydrochloride]
25 | 6.1 | Brc1ccc(OCCCNCCOc2ccccc2)cc1 [Example 16i, [3-(4-Bromo-phenoxy)-propyl]-(2-phenoxy-ethyl)-amine hydrochloride]
26 | 1.3 | Cc1ccc(OCCNCC(O)COc2ccccc2)cc1 (stereo not shown) [Example 16g, 1-Phenoxy-3-(2-p-tolyloxy-ethylamino)-propan-2-ol]
27 | 136 | Cc1ccc(OCCCNCCCOc2ccc(C)cc2)cc1 [Example 4b, Bis(3-p-tolyloxy-propyl)-amine hydrochloride]
28 | 45.8 | Brc1ccc(OCCCNCCCOc2ccc(Br)cc2)cc1 [Example 4a, Bis-[3-(4-bromo-phenoxy)-propyl]-amine hydrochloride]
29 | 1.2 | Cc1ccc(OCCNCCCSc2ccccc2)cc1 [Example 4g, (3-Phenylsulfanyl-propyl)-(2-p-tolyloxy-ethyl)-amine hydrochloride]
30 | 1.7 | Clc1ccc(OCCNCCCSc2ccccc2)cc1 [Example 4f, [2-(4-Chloro-phenoxy)-ethyl]-(3-phenylsulfanyl-propyl)-amine hydrochloride]
31 | 33.1 | Clc1ccc(SCCNCCCOc2ccccc2)cc1 [Example 4e, [2-(4-Chloro-phenylsulfanyl)-ethyl]-(3-phenoxy-propyl)-amine hydrochloride]
